# According to US5420027A, “Methods and compositions for the expression of biologically active fusion proteins comprising a eukaryotic cytochrome P450 fused to a reductase in bacteria” (Board of Regents, The University of Texas System, priority 1992, dated 1995):
# Where two headings read alike, the source gives them in different places.
# B1: human liver P450 1A2 (Homo sapiens; A19F/I20L/S18V) (protein)
# chain: MALLLAVFLFCLVFWVLKGLRPRVPKGLKSPPEPWGWPLLGHVLTLGKNPHLALSRMSQRYGDVLQIRIGSTPVLVLSRLDTIRQALVRQGDDFKGRPDLYTSTLITDGQSLTFSTDSGPVWAARRRLAQNALNTFSIASDPASSSSCYLEEHVSKEAKALISRLQELMAGPGHFDPYNQVVVSVANVIGAMCFGQHFPESSDEMLSLVKNTHEFVETASSGNPLDFFPILRYLPNPALQRFKAFNQRFLWFLQKTVQEHYQDFDKNSVRDITGALFKHSKKGPRASGNLIPQEKIVNLVNDIFGAGFDTVTTAISWSLMYLVTKPEIQRKIQKELDTVIGRERRPRLSDRPQLPYLEAFILETFRHSSFLPFTIPHSTTRDTTLNGFYIPKKCCVFVNQWQVNHDPELWEDPSEFRPERFLTADGTAINKPLSEKMMLFGMGKRRCIGEVLAKWEIFLFLAILLQQLEFSVPPGVKVDLTPIYGLTMKHARCEHVQARLRFSIN
# notes: made in house; host or cells: E. coli DH5α membranes, pCWori+ plasmid
# How the values were obtained:
# [1] = biological target: T1, bovine P45017α (Bos taurus, UniProt P05185, W2A); assay: Substrate-induced difference spectra (substrate binding) in intact E. coli expressing P45017α; details: steroid added until spectrally saturated
# T1 construct: made in house; host or cells: E. coli JM109 harboring pCWmod17 (intact cells)
# T1 sequence (P05185 1-509 W2A): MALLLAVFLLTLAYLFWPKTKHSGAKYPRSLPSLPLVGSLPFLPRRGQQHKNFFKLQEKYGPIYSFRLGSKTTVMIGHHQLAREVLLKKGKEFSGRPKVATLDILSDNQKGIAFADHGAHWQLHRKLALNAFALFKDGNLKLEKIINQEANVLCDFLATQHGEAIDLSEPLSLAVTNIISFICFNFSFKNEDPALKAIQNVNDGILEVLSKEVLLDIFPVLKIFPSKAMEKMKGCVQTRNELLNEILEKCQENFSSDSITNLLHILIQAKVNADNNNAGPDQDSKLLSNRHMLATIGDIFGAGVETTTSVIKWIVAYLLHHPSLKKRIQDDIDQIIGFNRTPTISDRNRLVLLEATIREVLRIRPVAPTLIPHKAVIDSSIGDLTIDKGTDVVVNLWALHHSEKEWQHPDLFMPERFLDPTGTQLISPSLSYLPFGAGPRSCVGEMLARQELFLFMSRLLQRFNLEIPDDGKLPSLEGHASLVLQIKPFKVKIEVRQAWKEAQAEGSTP
# Experimental: The functional role of the binding of C21 steroids to the expressed P45017α was determined by incubation of transformed E. coli with radiolabeled substrates and HPLC analysis of substrates and products.
# For the studies shown in FIG. 3B, substrate binding spectra were obtained by adding steroid to the indicated final concentration: (preg) pregnenolone 22 μM, (17OH preg) 17α-hydroxypregnenolone 40 μM, (DHEA) dehydroepiandrosterone 46 μM, (AD) androstenedione 46 μM. A volume of washed cells containing 1.6 nmoles P45017α was diluted to 6 ml with MOPS buffer and divided into the sample and reference cuvettes of an Aminco DW-2A spectrophotometer. A baseline tracing was recorded from 350 to 510 nm (representative shown). Steroid was added in 10 μl aliquots (1-2mg/ml in ethanol) to the sample with an equal volume of ethanol added to the reference. Additional aliquots of steroids and ethanol were added until the bacterially expressed P45017α was spectrally saturated (spectra shown).
# [2] = biological target: T2, bovine P450 17A1- rat liver reductase fusion protein (UniProt P00388+P05185, W2A); assay: Steroid metabolism by bovine P450 17A1-rat liver reductase fusion protein with NADPH
# T2 sequence (P05185+P00388 with tags, fused parts or gaps P05185:W2A): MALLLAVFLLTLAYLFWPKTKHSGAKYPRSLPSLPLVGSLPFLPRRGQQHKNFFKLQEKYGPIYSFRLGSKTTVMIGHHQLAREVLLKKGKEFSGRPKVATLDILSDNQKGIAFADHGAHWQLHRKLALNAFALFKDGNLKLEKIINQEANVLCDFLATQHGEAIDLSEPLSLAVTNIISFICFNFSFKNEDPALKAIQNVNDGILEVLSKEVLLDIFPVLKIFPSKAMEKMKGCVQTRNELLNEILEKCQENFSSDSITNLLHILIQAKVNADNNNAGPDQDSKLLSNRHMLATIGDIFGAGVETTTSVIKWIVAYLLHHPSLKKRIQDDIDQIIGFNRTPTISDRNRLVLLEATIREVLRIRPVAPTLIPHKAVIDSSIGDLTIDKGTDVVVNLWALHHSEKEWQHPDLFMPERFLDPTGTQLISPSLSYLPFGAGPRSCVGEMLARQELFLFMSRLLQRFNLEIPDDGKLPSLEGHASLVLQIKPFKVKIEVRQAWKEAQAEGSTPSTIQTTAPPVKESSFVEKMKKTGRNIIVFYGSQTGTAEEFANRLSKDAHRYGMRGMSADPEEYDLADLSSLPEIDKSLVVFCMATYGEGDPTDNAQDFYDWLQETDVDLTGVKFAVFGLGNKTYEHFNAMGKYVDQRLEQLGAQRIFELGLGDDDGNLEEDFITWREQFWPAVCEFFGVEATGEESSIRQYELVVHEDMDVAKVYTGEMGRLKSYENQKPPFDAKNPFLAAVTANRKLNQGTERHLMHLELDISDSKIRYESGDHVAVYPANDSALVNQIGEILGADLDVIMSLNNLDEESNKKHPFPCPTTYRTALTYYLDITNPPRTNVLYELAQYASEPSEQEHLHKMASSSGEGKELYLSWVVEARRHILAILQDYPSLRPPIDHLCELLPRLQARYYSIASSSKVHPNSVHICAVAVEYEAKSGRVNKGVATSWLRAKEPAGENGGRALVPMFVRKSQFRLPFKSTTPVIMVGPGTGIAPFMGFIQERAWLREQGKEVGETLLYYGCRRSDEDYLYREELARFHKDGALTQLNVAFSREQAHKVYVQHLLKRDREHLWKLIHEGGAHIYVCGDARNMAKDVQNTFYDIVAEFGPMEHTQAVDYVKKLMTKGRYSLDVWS
# Experimental: FIG. 11. […] Analysis was performed with reverse phase HPLC chromatography on a C18 column.
# In the present example, purification of the fusion protein was achieved by chromatography on DE-52 and 2', 5' ADP-sepharose.
# [3] = biological target: T3, human liver P450 1A2 (Homo sapiens, UniProt P05177, A19F/I20L/S18V); assay: Ethoxyresorufin and ethoxycoumarin O-deethylase activities of P450 1A2-containing E. coli membranes (fluorometric); assay type: biochemical; details: O-deethylation; membranes plus purified reductase, 37° C.
# T3 construct: made in house; host or cells: E. coli DH5α membranes, pCWori+ plasmid
# T3 sequence (P05177 with tags, fused parts or gaps S18V/A19F/I20L limits assumed): B1 chain
# Experimental: (§1) Membranes from P450 1A2-expressing E. coli were incubated with pure NADPH-cytochrome P450 reductase and the activity for the P450 directed oxidation of a number of substrates was determined.
# (§2) Ethoxyresorufin and ethoxycoumarin O-deethylase activities were assayed fluorometrically using an Aminco-Bowman fluorometer as previously described (Burke & Mayer, 1974; Ullrich & Weber, 1972). […] Substrates were added as DMSO solutions in less than 0.1% of the final volume. The reactions were initiated by the addition of 10 μl of 50 mM NADPH.
# [4] = biological target: T4, bovine 17α-hydroxylase (P45017α) (Bos taurus, UniProt P05185, W2A); details: for conversion by expressed P45017α (17α-hydroxylation / 17,20-lyase): intact E. coli, 2.5 μM steroid, 28° C., up to 8 hours, no added reductase
# T4 sequence (P05185 1-509 W2A): T1 sequence (P05185 1-509 W2A)
# Experimental: The initial substrates employed were pregnenolone, 17α-hydroxypregnenolone, and progesterone. For these studies, E. coli were grown and induced as described for the FIG. 2 studies. Cells were pelleted, washed once in MOPS buffer and resuspended in the same buffer at 1/20 volume of the original bacterial culture. A volume of concentrated cells corresponding to 3.7-4.2 nmoles P45017α was diluted to 5ml MOPS buffer containing 10 mM glucose, 2.5 μM steroid and 100,000 cpm/ml of ^3 H-labeled radioactive steroid. Samples were incubated at. 28° C. with gentle shaking. Aliquots (0.5 ml) were removed at 0, 0.5, 1, 2, 4, 6 and 8 hours after steroid addition. Following extraction of cells and culture media steroids were analyzed by HPLC as previously described (Estabrook et al., 1988).
# [5] = substrate: C[C@]12CC[C@@H]3c4ccc(O)cc4CC[C@H]3[C@@H]1CC[C@@H]2O; assay: cells, lysate or membranes named; details: other: estradiol to 2-OH metabolite, membranes plus purified reductase, 37° C., pH 7.5
# [6] = substrate: CCOc1ccc2nc3ccc(=O)cc-3oc2c1; assay: Ethoxyresorufin and ethoxycoumarin O-deethylase activities of P450 1A2-containing E. coli membranes (fluorometric); assay type: biochemical, human; details: other: O-deethylation, membranes plus purified reductase, 37° C., pH 7.4
# Experimental: as §1, §2
# [7] = membrane-bound fused enzyme (FIG. 10)
# [8] = purified fusion protein incubated with NADPH (FIGS. 11, 12)
molecule,measurement,setting,value
"CC(=O)[C@@]1(O)CC[C@H]2[C@@H]3CC=C4C[C@@H](O)CC[C@]4(C)[C@H]3CC[C@@]21C [17α-hydroxyregnenolone, 17α-hydroxypregnenolone]",binding to expressed P45017α (substrate-induced difference spectrum),[1],binding of substrates was also observed
same,metabolism by membrane-bound fusion protein,[2]; [7],lost the ability to catalyze the lyase reaction
same,metabolism by purified fusion protein,[2]; [8],DHEA is formed in a time dependent manner
CCOc1ccc2ccc(=O)oc2c1 [Ethoxycoumarin],Vmax,[3],0.3644 mol/min/mol P450
C[C@]12CCC(=O)C=C1CC[C@@H]1[C@@H]2CC[C@]2(C)C(=O)CC[C@@H]12 [androstenedione],binding to expressed P45017α (substrate-induced difference spectrum),[1],no binding
C[C@]12CC[C@H](O)CC1=CC[C@@H]1[C@@H]2CC[C@]2(C)C(=O)CC[C@@H]12 [dehydroepiandrosterone],binding to expressed P45017α (substrate-induced difference spectrum),[1],much less binding
CC(=O)N1CCN(c2ccc(OCC3COC(Cn4ccnc4)(c4ccc(Cl)cc4Cl)O3)cc2)CC1 (stereo not shown) [ketoconazole],inhibition of 17α-hydroxylase activity,[4]; intact E. coli expressing bovine P45017α,inhibit 17α-hydroxylase activity
CC(=O)[C@H]1CC[C@H]2[C@@H]3CC=C4C[C@@H](O)CC[C@]4(C)[C@H]3CC[C@]12C [pregnenolone],binding to expressed P45017α (substrate-induced difference spectrum),[1],binding of substrates was also observed
same,"conversion by expressed P45017α (17α-hydroxylation / 17,20-lyase)",[4],readily converted to their 17α-hydroxylated products
same,metabolism by membrane-bound fusion protein,[2],rather slow rate
same,metabolism by purified fusion protein,[2],remarkably high enzymatic activity
CC(=O)[C@H]1CC[C@H]2[C@@H]3CCC4=CC(=O)CC[C@]4(C)[C@H]3CC[C@]12C [progesterone],binding to expressed P45017α (substrate-induced difference spectrum),[1],binding of substrates was also observed
same,"conversion by expressed P45017α (17α-hydroxylation / 17,20-lyase)",[4],readily converted to their 17α-hydroxylated products
same,metabolism by membrane-bound fusion protein,[2]; [7],rather slow rate
same,metabolism by purified fusion protein,[2]; [8],remarkably high enzymatic activity
B1,Km,[5],13 µM
same,kcat,[5],1.5 mol/min/mol P450
same,Km,[6],0.01 µM
same,kcat,[6],2.5 mol/min/mol P450
